Measured values reported in patent US20260365670A1, “EGFR INHIBITORS AND USES THEREOF” (DIZAL (JIANGSU) PHARMACEUTICAL CO., LTD., priority 2022, published 2026).
Like-named read-outs stand apart in the source and are kept apart here.

Key:
EGFR wild type = biological target: T1, EGFR wild type (Homo sapiens, UniProt P00533); assay: Inhibition of EGFR wild type biochemical enzymatic activity (HTRF); settings: EGFR WT, 1 mM ATP, 1 h, room temperature, read-out: IC50 (nM) @WT
T1 construct: purchased Carna Bio
Outline: (§1)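 In a buffer with 5 mM MgCl2, 1 mM MnCl2, 1 mM DTT and 0.01% CHAPS, enzyme turnover of 1 μM biotinylated TK substrate at 1 mM ATP is followed by HTRF after 1 h at room temperature. IC50 is obtained by a four-parameter fit.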

EGFR L858R = biological target: T2, EGFR L858R (Homo sapiens, UniProt P00533, L858R); assay: Inhibition of EGFR L858R biochemical enzymatic activity (HTRF); settings: 1 mM ATP, 1 h, room temperature, read-out: IC50 (nM) @L858R
T2 construct: purchased Carna Bio
Outline: as §1

EGFR L858R/T790M = biological target: T3, EGFR L858R/T790M (Homo sapiens, UniProt P00533, L858R/T790M); assay: Inhibition of EGFR L858R/T790M biochemical enzymatic activity (HTRF); settings: EGFR L858R-T790M, 1 mM ATP, 1 h, room temperature, read-out: IC50 (nM) @L858R-T790M
T3 construct: purchased Carna Bio
Outline: as §1

EGFR Exon19Del = biological target: T4, EGFR Exon19Del (Homo sapiens, UniProt P00533, DEL746-750); assay: Inhibition of EGFR Exon19Del biochemical enzymatic activity (HTRF); settings: EGFR Del19, 1 mM ATP, 1 h, room temperature, read-out: IC50 @Del19
T4 construct: purchased Carna Bio
Outline: as §1

EGFR Exon19Del/T790M = biological target: T5, EGFR Exon19Del/T790M (Homo sapiens, UniProt P00533, DEL746-750/T790M); assay: Inhibition of EGFR Exon19Del/T790M biochemical enzymatic activity (HTRF); settings: EGFR Del19-T790M, 1 mM ATP, 1 h, room temperature, read-out: IC50 (nM) @Del19-T790M
T5 construct: purchased Carna Bio
Outline: as §1

EGFR[T790M/C797S/L858R] = biological target: T6, EGFR[T790M/C797S/L858R] (Homo sapiens, UniProt P00533, C797S/L858R/T790M); assay: Inhibition of EGFR[T790M/C797S/L858R] biochemical enzymatic activity (HTRF); settings: EGFR T790M-C797S-L858R, 1 mM ATP, 1 h, room temperature, read-out: IC50 (nM) @T790M- C797S - L858R
T6 construct: purchased Carna Bio
Outline: as §1

[1] = biological target: T7, EGFR[T790M/C797S/d746-750] (Homo sapiens, UniProt P00533, C797S/DEL746-750/T790M); assay: Inhibition of EGFR[T790M/C797S/d746-750] biochemical enzymatic activity (HTRF); settings: EGFR T790M-C797S-Del19, 1 mM ATP, 1 h, room temperature, read-out: IC50 (nM) @T790M - C797S - Del19
T7 construct: purchased Carna Bio
Outline: as §1

EGFR (d746-750 C797S) = biological target: T8, EGFR (d746-750 C797S) (Homo sapiens, UniProt P00533, C797S/DEL746-750); assay: Inhibition of EGFR (d746-750 C797S) biochemical enzymatic activity (HTRF); settings: EGFR Del19-C797S, 1 mM ATP, 1 h, room temperature, read-out: IC50 (nM) @Del19-C797S
T8 construct: purchased signalchem
Outline: as §1

EGFR (C797S L858R) = biological target: T9, EGFR (C797S L858R) (Homo sapiens, UniProt P00533, C797S/L858R); assay: Inhibition of EGFR (C797S L858R) biochemical enzymatic activity (HTRF); settings: EGFR L858-C797S, 1 mM ATP, 1 h, room temperature, read-out: IC50 (nM) @L858-C797S
T9 construct: purchased signalchem
Outline: as §1

[2] = test system: Ba/F3 cells expressing EGFR mutations; assay: Cell proliferation assay, Ba/F3 cells expressing EGFR mutations (CellTiter-Glo, 72 hours); format: cell-based; settings: CellTiter-Glo
Outline: (§2)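 GI50 is the concentration giving 50% proliferation inhibition. Growth for this was normalised to a baseline viability reading taken when compound was added, and to DMSO wells. PC-9 (500 cells/well) and mutant-EGFR Ba/F3 (5000 cells/well) are treated after overnight seeding in RPMI1640-based medium.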

PC-9 = assay: Cell proliferation assay, PC-9 cells (CellTiter-Glo, 72 hours); format: cell-based; settings: PC9 cells, CellTiter-Glo, read-out: PC9 GI50
Outline: as §2

A-431 = assay: Cell proliferation GI50, A-431 cells (Table 6); format: cell-based
[3] = BaF3 cells, EGFR DEL19-C797S, read-out: DEL19-C797S/BaF3 GI50
[4] = BaF3 cells, EGFR DEL19-T790-C797S, read-out: DEL19-T790-C797S/BaF3 GI50
[5] = BaF3 cells, EGFR L858R, read-out: L858R/BaF3 GI50
[6] = BaF3 cells, EGFR L858R-C797S, read-out: L858R-C797S/BaF3 GI50
[7] = BaF3 cells, EGFR L858R-T790-C797S, read-out: L858R-T790-C797S/BaF3 GI50
[8] = BaF3 cells, EGFR L858R-T790M, read-out: L858R-T790M/BaF3 GI50
[9] = EGFR DEL19-T790M, read-out: DEL19-T790M GI50

T5 sequence (P00533 with tags, fused parts or gaps DEL746-750/T790M limits assumed): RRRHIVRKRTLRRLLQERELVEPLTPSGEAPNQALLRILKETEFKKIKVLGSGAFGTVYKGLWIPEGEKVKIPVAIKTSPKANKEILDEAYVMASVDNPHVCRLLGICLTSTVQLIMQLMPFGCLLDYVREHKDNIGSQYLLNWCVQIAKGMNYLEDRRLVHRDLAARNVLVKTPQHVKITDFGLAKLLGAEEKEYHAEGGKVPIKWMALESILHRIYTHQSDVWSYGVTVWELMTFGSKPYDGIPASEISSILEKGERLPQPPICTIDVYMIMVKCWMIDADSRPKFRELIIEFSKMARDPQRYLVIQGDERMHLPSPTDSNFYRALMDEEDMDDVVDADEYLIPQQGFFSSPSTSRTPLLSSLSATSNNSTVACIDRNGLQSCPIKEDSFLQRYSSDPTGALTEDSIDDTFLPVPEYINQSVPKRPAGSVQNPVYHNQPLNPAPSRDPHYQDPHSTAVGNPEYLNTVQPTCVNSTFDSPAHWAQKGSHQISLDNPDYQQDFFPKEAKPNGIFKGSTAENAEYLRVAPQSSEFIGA
T8 sequence (P00533 with tags, fused parts or gaps DEL746-750/C797S limits assumed): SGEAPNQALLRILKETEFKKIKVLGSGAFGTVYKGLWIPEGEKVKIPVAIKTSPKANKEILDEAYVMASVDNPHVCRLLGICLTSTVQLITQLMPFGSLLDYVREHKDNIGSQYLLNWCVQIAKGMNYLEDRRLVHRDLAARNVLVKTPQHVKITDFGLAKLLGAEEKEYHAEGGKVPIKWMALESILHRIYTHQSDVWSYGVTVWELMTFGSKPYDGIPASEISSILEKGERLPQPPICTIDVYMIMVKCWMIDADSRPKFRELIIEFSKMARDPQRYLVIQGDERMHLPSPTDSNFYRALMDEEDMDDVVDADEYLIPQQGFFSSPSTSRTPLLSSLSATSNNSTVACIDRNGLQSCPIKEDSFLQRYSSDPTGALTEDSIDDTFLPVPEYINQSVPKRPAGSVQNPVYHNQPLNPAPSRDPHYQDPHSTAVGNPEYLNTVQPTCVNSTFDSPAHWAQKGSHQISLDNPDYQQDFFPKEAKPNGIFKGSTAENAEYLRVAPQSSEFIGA
T9 sequence (P00533 25-1210 C797S/L858R): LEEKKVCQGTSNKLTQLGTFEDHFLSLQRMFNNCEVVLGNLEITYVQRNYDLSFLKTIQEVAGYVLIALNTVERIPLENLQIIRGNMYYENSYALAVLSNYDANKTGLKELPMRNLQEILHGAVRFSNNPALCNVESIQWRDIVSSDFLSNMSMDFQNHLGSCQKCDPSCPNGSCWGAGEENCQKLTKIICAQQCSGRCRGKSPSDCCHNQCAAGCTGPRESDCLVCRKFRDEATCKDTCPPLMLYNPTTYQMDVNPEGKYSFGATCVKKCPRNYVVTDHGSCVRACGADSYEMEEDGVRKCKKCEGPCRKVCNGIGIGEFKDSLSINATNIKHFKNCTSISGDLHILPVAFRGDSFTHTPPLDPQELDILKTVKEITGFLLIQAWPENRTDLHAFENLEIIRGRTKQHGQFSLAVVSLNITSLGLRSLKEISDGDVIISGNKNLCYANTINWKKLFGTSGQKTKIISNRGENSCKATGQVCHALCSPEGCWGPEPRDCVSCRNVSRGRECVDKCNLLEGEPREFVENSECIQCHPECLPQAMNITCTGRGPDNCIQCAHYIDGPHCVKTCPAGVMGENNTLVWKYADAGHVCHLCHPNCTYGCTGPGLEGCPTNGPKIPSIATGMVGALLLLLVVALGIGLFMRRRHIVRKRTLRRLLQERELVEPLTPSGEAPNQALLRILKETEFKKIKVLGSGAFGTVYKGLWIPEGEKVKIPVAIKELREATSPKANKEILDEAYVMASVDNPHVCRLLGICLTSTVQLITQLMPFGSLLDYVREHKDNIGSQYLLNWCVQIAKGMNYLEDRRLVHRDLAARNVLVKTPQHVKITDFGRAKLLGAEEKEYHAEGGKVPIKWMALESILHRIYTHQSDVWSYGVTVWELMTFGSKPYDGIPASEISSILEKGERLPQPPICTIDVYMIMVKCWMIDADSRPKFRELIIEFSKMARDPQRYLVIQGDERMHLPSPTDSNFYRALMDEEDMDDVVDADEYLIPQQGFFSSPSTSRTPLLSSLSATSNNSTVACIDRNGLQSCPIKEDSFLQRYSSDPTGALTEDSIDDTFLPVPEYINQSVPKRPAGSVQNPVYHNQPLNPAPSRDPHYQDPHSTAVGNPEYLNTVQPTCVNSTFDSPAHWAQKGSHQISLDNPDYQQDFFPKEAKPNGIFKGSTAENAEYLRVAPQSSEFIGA
T7 sequence (P00533 with tags, fused parts or gaps DEL746-750/T790M/C797S limits assumed): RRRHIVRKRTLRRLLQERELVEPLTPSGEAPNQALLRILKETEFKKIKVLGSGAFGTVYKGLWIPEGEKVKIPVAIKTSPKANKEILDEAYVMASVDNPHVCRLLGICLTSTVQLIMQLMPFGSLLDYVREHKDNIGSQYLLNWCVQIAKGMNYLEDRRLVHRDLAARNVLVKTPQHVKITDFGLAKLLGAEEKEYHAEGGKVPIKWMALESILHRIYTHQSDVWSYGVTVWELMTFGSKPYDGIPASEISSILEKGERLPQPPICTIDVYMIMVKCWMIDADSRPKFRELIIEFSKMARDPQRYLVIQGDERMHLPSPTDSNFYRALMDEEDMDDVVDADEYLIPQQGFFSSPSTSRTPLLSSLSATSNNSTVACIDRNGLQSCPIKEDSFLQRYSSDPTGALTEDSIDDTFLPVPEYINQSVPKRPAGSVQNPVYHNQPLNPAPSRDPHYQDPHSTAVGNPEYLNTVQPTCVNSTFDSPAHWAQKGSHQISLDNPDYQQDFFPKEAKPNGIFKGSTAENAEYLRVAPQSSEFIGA
T2 sequence (P00533 25-1210 L858R): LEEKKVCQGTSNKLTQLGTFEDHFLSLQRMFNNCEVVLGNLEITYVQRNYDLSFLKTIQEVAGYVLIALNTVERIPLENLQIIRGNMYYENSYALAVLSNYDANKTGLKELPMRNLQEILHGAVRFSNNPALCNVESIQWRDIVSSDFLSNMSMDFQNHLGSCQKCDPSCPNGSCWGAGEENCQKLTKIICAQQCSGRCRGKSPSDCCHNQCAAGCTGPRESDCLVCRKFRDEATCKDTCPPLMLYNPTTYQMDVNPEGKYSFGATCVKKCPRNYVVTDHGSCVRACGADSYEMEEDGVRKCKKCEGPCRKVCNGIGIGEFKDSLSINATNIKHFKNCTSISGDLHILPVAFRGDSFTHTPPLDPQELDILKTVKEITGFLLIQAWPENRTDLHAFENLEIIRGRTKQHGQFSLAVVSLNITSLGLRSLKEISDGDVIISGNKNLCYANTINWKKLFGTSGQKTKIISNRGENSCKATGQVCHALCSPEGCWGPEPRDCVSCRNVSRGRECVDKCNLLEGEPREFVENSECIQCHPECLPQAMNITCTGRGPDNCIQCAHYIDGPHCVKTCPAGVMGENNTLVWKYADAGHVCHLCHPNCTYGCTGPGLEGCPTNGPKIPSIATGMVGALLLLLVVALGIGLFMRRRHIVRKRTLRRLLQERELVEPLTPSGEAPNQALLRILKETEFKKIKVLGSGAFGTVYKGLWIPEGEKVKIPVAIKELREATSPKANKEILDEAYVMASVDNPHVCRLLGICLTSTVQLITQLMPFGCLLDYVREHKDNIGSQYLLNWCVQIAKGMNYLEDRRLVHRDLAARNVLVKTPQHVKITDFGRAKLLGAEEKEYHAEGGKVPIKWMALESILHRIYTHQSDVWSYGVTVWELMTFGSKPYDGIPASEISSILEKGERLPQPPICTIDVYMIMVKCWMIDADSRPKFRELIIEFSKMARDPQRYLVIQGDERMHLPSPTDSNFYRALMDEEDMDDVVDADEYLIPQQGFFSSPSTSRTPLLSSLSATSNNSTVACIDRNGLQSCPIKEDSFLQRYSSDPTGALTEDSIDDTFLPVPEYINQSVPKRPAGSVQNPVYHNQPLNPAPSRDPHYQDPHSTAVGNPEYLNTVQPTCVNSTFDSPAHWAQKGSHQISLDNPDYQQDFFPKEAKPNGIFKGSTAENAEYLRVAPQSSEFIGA
T4 sequence (P00533 with tags, fused parts or gaps DEL746-750 limits assumed): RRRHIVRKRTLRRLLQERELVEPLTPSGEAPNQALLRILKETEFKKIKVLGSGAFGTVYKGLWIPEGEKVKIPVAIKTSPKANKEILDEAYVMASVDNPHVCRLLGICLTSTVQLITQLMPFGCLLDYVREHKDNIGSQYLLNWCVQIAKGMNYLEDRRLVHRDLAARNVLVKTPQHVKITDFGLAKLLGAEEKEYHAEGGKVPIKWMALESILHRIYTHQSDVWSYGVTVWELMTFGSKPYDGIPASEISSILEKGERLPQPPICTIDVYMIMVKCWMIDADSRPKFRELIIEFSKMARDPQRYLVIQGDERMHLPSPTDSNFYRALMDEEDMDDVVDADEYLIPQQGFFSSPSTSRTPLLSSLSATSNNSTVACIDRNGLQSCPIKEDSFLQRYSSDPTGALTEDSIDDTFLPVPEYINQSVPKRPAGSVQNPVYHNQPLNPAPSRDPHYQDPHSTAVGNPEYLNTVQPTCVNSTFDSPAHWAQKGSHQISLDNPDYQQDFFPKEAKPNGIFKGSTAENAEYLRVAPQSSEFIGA

Row | SMILES | IC50 (EGFR wild type) [nM] | IC50 (EGFR L858R) [nM] | IC50 (EGFR L858R/T790M) [nM] | IC50 (EGFR Exon19Del) [nM] | IC50 (EGFR Exon19Del/T790M) [nM] | IC50 (EGFR[T790M/C797S/L858R]) [nM] | IC50 [1] [nM] | IC50 (EGFR (d746-750 C797S)) [nM] | IC50 (EGFR (C797S L858R)) [nM] | GI50 [2, 3] [nM] | GI50 [2, 4] [nM] | GI50 [2, 5] [nM] | GI50 [2, 6] [nM] | GI50 [2, 7] [nM] | GI50 [2, 8] [nM] | GI50 [2, 9] [nM] | GI50 (PC-9) [nM] | GI50 (A-431; A-431 cells) [nM] | also measured
1 | CN(C)CCCN(C)c1ccc2nc3n(c2c1)C12CCC(CN(CCOc4c(cnn4C)-c4cc(cn(C)c4=O)C(=O)N3)C1)C2 (single isomer, unassigned) [Example A89A] | > 5000 | 3600 | > 5000 | 250 | > 5000 | > 5000 | > 5000 | 573 | > 5000 | 103 | 178 | 135 | 165 | 280 | 367 | 115 | 791 | 6390 | 
2 | C[C@@H]1CCCOc2c(cnn2C)-c2cc(cn(C)c2=O)C(=O)Nc2nc3ccc(N4CCC(N(C)C)C4)cc3n2C1 (stereo partly drawn) [Example A27, (11R)-16-[3-(Dimethylamino)pyrrolidin-1-yl]-5,11,26-trimethyl-7-oxa-4,5,13,20,22,26-hexaazapentacyclo[22.3.1.0^{2,6}.0^{13,21}.0^{14,19}]octacosa-1(28),2(6),3,14,16,18,20,24-octaene-23,27-dione] | 290 | 25 | 26 | 6.1 | 15 | 20 | 13 | 5.5 | 21 |  |  |  |  |  |  |  |  |  | GI50 ([2]; Mus musculus, BaF3, 72 h, BaF3 cells, EGFR DEL19-C797S, read-out: DEL19-C797S/BaF3 GI50): 1.2 nM; GI50 ([2]; Mus musculus, BaF3, 72 h, BaF3 cells, EGFR DEL19-T790-C797S, read-out: DEL19-T790-C797S/BaF3 GI50): 1.9 nM; GI50 ([2]; Mus musculus, BaF3, 72 h, BaF3 cells, EGFR L858R, read-out: L858R/BaF3 GI50): 3 nM; GI50 ([2]; Mus musculus, BaF3, 72 h, BaF3 cells, EGFR L858R-C797S, read-out: L858R-C797S/BaF3 GI50): 7.1 nM; GI50 ([2]; Mus musculus, BaF3, 72 h, BaF3 cells, EGFR L858R-T790-C797S, read-out: L858R-T790-C797S/BaF3 GI50): 2.2 nM; GI50 ([2]; Mus musculus, BaF3, 72 h, BaF3 cells, EGFR L858R-T790M, read-out: L858R-T790M/BaF3 GI50): 6.8 nM; GI50 ([2]; Mus musculus, BaF3, 72 h, EGFR DEL19-T790M, read-out: DEL19-T790M GI50): 3.5 nM; GI50 (PC-9; Homo sapiens, PC-9, 72 h): 21 nM; GI50 (A-431; Homo sapiens, A-431, A-431 cells): 453 nM
3 | CN(C)C1CN(c2ccc3nc4n(c3c2)C23CCC(CN(CCOc5c(cnn5C)-c5cc(cn(C)c5=O)C(=O)N4)C2)C3)CC1F (single isomer, unassigned) [Example A84C, 15,21-Dimethyl-5-[4-fluoro-3-(N,N-dimethylamino)pyrrolidinyl]-23-oxa-2,9,11,15,20,21,26-heptaazaheptacyclo[24.4.1.1^{1,28}.1^{13,17}.0^{2,10}.0^{3,8}.0^{18,22}]tritriaconta-3,5,7,9,13,17(33),18(22),19-octaene-12,16-dione] | 57 | 6.7 | 5 | 2.6 | 3.4 | 3.5 | 2.5 | 1.4 | 4.8 | 0.72 | 2.1 | 2.1 | 3.9 | 6 | 12 | 2.7 | 6.6 | 727 | 
4 | Cn1ncc2c1OCCN1CC3CCC(C3)(C1)n1c(nc3ccc(N4CC(N5CCOCC5)C4)cc31)NC(=O)c1cc-2c(=O)n(C)c1 (single isomer, unassigned) [Example A69A] | > 5000 | > 5000 | > 5000 | 1200 | > 5000 | > 5000 | > 5000 | 1780 | > 5000 | 227 | 366 | 643 | 598 | 503 | 1530 | 465 | 723 | 9380 | 
5 | CN1CCC12CCN(c1ccc3nc4n(c3c1)C13CCC(CN(CCOc5c(cnn5C)-c5cc(cn(C)c5=O)C(=O)N4)C1)C3)CC2 (single isomer, unassigned) [Example A67A] | > 5000 | > 5000 | > 5000 | 1020 | 4070 | > 5000 | 1640 | 1080 | > 5000 | 133 | 374 | 530 | 382 | 258 | 1040 | 463 | 307 | 6350 | 

More lines, main results first:

Row | IC50 (EGFR wild type) [nM] | IC50 (EGFR L858R) [nM] | IC50 (EGFR L858R/T790M) [nM] | IC50 (EGFR Exon19Del) [nM] | IC50 (EGFR Exon19Del/T790M) [nM] | IC50 (EGFR[T790M/C797S/L858R]) [nM] | IC50 [1] [nM] | IC50 (EGFR (d746-750 C797S)) [nM] | IC50 (EGFR (C797S L858R)) [nM] | GI50 [2, 3] [nM] | GI50 [2, 4] [nM] | GI50 [2, 5] [nM] | GI50 [2, 6] [nM] | GI50 [2, 7] [nM] | GI50 [2, 8] [nM] | GI50 [2, 9] [nM] | GI50 (PC-9) [nM] | GI50 (A-431; A-431 cells) [nM] | SMILES | also measured
6 | 16 | 3.2 | 2.3 | 1.5 | 2.6 | 2.2 | 2.3 | 1 | 2.6 | 0.5 | 1.1 | 0.82 | 1.6 | 0.94 | 3 | 1.2 | 9.8 | 842 | CN1CC2(C1)CN(c1ccc3nc4n(c3c1)C13CCC(CN(CCOc5c(cnn5C)-c5cc(cn(C)c5=O)C(=O)N4)C1)C3)C2 (single isomer, unassigned) [Example A92B] | 
7 | > 5000 | 2040 | > 5000 | 508 | > 5000 | > 5000 | 3750 | 494 | > 5000 | 102 | 269 | 329 | 157 | 402 | 380 | 250 | 249 | 3050 | CN1CCC2(C1)CN(c1ccc3nc4n(c3c1)C13CCC(CN(CCOc5c(cnn5C)-c5cc(cn(C)c5=O)C(=O)N4)C1)C3)C2 (single isomer, unassigned) [Example A78A] | 
8 | 6.6 | 3.2 | 2.3 | 1.8 | 2.8 | 2.3 | 2.3 | 1.7 | 3.1 | 0.7 | 2.8 | 2.6 | 2.7 | 11 | 12 | 1.9 | 6.9 | 667 | CN1CCC2(CCN(c3ccc4nc5n(c4c3)C34CCC(CN(CCOc6c(cnn6C)-c6cc(cn(C)c6=O)C(=O)N5)C3)C4)C2)C1 (single isomer, unassigned) [Example A81B] | 
